Data as given in patent publication US10806730B2, “Methods of treating cancer with farnesyltransferase inhibitors” (Kura Oncology, Inc., priority 2017, dated 2020).

Assays:
Format in all cases: in vivo, human
[1] = system: higher risk MDS/CMML subjects; assay: Clinical study of tipifarnib (INT-28) in higher risk MDS/CMML
Procedure: A clinical study of tipifarnib (300 mg bid (twice daily), 3 weeks on/1 week off) was conducted in 82 higher risk MDS/CMML subjects. 67 subjects were transfusion dependent (TD) at study entry, whereby a subject receiving one or several red blood cell (RBC) transfusions during screening and up to the first administration of tipifarnib was classified as TD.
30/67 (45%) MDS subjects were initially classified as having moderate to severe neutropenia, based on their absolute neutrophil count (ANC) of <1,000 cells/μl blood prior to receiving tipifarnib. The ANC of the remaining 37/67 (55%) MDS subjects was ≥1,000 cells/μl blood. 9/30 (30%) MDS subjects with moderate to severe neutropenia and 2/37 (5%) MDS subjects without moderate to severe neutropenia converted to transfusion independence during the tipifarnib study. […] The majority of the subjects that developed transfusion independence were of intermediate (INT) risk of developing AML.

[2] = system: elderly patients with newly diagnosed, de novo, or secondary AML; assay: Ph3 study AML301, tipifarnib vs BSC
Procedure: (§1) Clinical studies with tipifarnib were performed in newly diagnosed elderly patients with poor risk AML (CTEP-20, Phase 2) and relapsed and refractory AML (INT-17, Phase 2). Patient selection in these studies was not based on genetic markers. Anecdotal evidence of tipifarnib single agent activity was reported. […] Median OS in the overall study was 107 days for the Tipifarnib group and 109 days for the BSC group in AML301.

[3] = system: newly diagnosed elderly patients with poor risk AML; assay: CTEP-20 Phase 2 tipifarnib study
Procedure: as §1

[4] = system: relapsed and refractory AML; assay: INT-17 Phase 2 tipifarnib study
Procedure: as §1

[5] = 34 study subjects with outcome and expression data
[6] = CXCR4/CXCR2 expression ratio quartiles 1st-3rd
[7] = bone marrow CXCR4/CXCR2 expression ratio in the upper quartile

Cn1cncc1[C@@](N)(c1ccc(Cl)cc1)c1ccc2c(c1)c(-c1cccc(Cl)c1)cc(=O)n2C [tipifarnib]
conversion to transfusion independence (TI) ([1]; 67 transfusion dependent (TD) subjects, 300 mg bid, 3 weeks on/1 week off): 16% | conversion to transfusion independence ([1]; MDS subjects with neutropenia and high peripheral blast cell count >1%): 11% | conversion to transfusion independence ([1]; MDS subjects with neutropenia and low peripheral blast cell count ≤1%): 38% | conversion to transfusion independence ([1]; TD MDS subjects with moderate to severe neutropenia (ANC <1,000 cells/μl)): 30% | conversion to transfusion independence ([1]; TD MDS subjects without moderate to severe neutropenia (ANC ≥1,000 cells/μl)): 5% | persistence of RBC and platelet transfusion independence ([1]; exemplary MDS subject, ANC at screening=400 cells/μl, 300 mg bid, 3 weeks on/1 week off): 308 days | hazard ratio, tipifarnib vs reference therapy ([2]; ANC/WBC<0.3 and marrow blasts>60%, N=110, P=0.08): 0.67 | Median survival ([2]; ANC/WBC<0.4, WBC>2, platelets>20, N=135): 146 days | hazard ratio, tipifarnib vs BSC ([2]; ANC/WBC<0.4, WBC>2, platelets>20, N=135, P=0.046): 0.7 | median progression free survival (PFS) ([2]; BMR<0.1 prior to treatment, N=73): 83 days | median PFS ([2]; BMR≥0.1 prior to treatment, N=140): 60 days | Median OS ([2]; overall study): 107 days | Hazards ratio, Tipifarnib compared with BSC ([2]; overall study, N=457, non significant): 1.02 | Median survival ([2]; subset with high BM blasts (>40%) and low peripheral blasts (<10%), N=82): 201 days | HR, tipifarnib vs BSC ([2]; subset with high BM blasts (>40%) and low peripheral blasts (<10%), N=82, P=0.019): 0.58 | Median overall PFS [3, 5]: 84 days | Median overall survival [3, 5]: 233 days | median progression free survival (PFS) ([3]; BMR<0.1 prior to treatment, N=57): 93 days | median PFS ([3]; BMR≥0.1 prior to treatment, N=84): 47 days | Median survival (FIG. 7A, PFS probabilities) [3, 6]: 67 days | Median survival (FIG. 7B) [3, 6]: 179 days | HR (FIG. 7B, survival), upper quartile vs quartiles 1st-3rd ([3]; CXCR4/CXCR2 expression ratio, p=0.07): 0.26 | HR (FIG. 7A, PFS), upper quartile vs quartiles 1st-3rd ([3]; CXCR4/CXCR2 expression ratio, p=0.09): 0.44 | Median survival (FIG. 7A, PFS probabilities) [3, 7]: 406 days | Median survival (FIG. 7B) [3, 7]: 728 days | overall survival ([4]; 57 subjects with CXCR4/CXCR2 ratio data): 87 days | median PFS ([4]; AML subjects overexpressing CXCR4, N=8): 143 days | median PFS ([4]; AML subjects with relatively lower levels of CXCR4 expression, N=49): 29 days | Median survival ([4]; CXCR4/CXCR2 quintile group 1): 56 days | Median survival ([4]; CXCR4/CXCR2 quintile group 2): 78 days | Median survival ([4]; CXCR4/CXCR2 quintile group 3): 44 days | Median survival ([4]; CXCR4/CXCR2 quintile group 4): 105 days | Median survival ([4]; CXCR4/CXCR2 quintile group 5): 182 days | HR, 5th quintile of CXCR4/CXCR2 ratio vs rest ([4]; p=0.04): 0.52 | Median survival ([4]; rest of the subjects (not 5th quintile of CXCR4/CXCR2 ratio)): 74 days
